In patent publication US10149879B2 (priority 2014, dated 2018):

How the values were obtained:
Triglycerides = assay: Anti-hyperlipidemic activity on triglycerides; type: in vivo, rats; settings: H.G. animals, standard drug
Protocol: (§1) Before utilizing the test drug for human consumption the pre-clinical safety and efficacy profile of single plant candidate extract as well as in combined form was conducted following standard norms. The biological property of test formulation was validated in streptozotocin (STZ) induced diabetes animal model which also helped in evaluation of vascular complications caused due to diabetes. The effect of test drug was assessed on glucose levels, insulin level, glycosylated hemoglobin, and pro-inflammatory cytokines, and the most important bio-marker neopterin including various neuro-psychological assessments. The mechanism based study clearly indicated the neopterin decreasing potential of test formulation which exerted neuro-protective activity, better glycemic control, anti-atherosclerotic, anti-inflammatory, anti-oxidant effects in STZ induced diabetes among the animals. Further, its therapeutic activity has also been validated in neurogenic dementia and other cognitive deficits associated with diabetes mellitus.

Free Fatty Acid (FFA) = assay: Reduction in free fatty acids; type: in vivo, rats; settings: H.G. animals; standard drug
Protocol: as §1, with “mellitus. Reduction in Free Fatty Acids Following Test Formulation Treatment Treated with test formulation reported FFA elevation in tissues and plasma of diabetic rats” for “mellitus.”

[1] = tested on: SGOT, SGPT, ALP, ACP, LDH; assay: Hepato-protective effect (SGOT, SGPT, ALP, ACP, LDH); type: in vivo, rats; settings: H.G. animals; standard drug
Protocol: as §1, with “mellitus. Hepato-Protective Effect of Test Formulation” for “mellitus.”

G-6-P = assay: Regulation of key enzymes in gluconeogenesis: G-6-P; type: in vivo, rats; settings: H.G. animals; standard drug
Protocol: as §1

TBARS = assay: Attenuation of oxidative stress: TBARS formation; type: in vivo, rats; design: TBARS formation, Brain / TBARS formation, Heart / TBARS formation, Liver / TBARS formation, Kidney: unit not given here; settings: H.G. animals; standard drug
Protocol: as §1, with “mellitus. Attenuation of Oxidative Stress Following Treatment with Test Formation—Reduction in TBARS Formation” for “mellitus.”

Neopterin = Neopterin decreasing property in experimental diabetes; type: in vivo, rats; settings: H.G. animals, standard drug
Protocol: as §1

Insulin = Insulin secretagogues property in diabetic animals; type: in vivo, rats; settings: H.G. animals; standard drug
Protocol: as §1

[2] = tested on: streptozotocin (STZ) induced diabetes animal model; assay: Urine volume and glyceuira (Benedict reagent); type: in vivo, rats; design: key to Glyceuria: (+++) abundant; (++) moderate; (+) mild; (−) complete absence; settings: H.G. animals; standard drug
Protocol: as §1
Urine was collected from each group separately by using animal metabolic cage, volume of urine collected was measured and glucose executed in urine was detected by Benedict reagent. In which 1 ml of urine and 3 ml of B.R. are added and boiled for 5 minute. The change in color was observed as Red (+++), green coloration (++) yellow coloration (+) and unchanged (−).

βTC6 insulinoma cell = assay: Anti-oxidant activity in βTC6 insulinoma cell challenged with H2O2; type: cell-based; design: Anti-oxidant activity, cells challenged with H2O2: unit not given here; settings: for Anti-oxidant activity, cells challenged with H2O2: βTC6
Source text: Anti-Oxidant Activity in βTC6 Insulinoma Cell Challenged with H2O2 Berberin and Quercetin—
Anti-Oxidant Activity in βTC6 Insulinoma Cell Challenged with H2O2 Berberin and Palmatine—

Aldose reductase = biological target: T1, Aldose reductase (Rattus norvegicus, UniProt P07943); assay: Aldose reductase activity; type: in vivo, rats; settings: H.G. animals; standard drug
T1 construct: from tissue; STZ-induced diabetic animals
Protocol: Before utilizing the test drug for human consumption the pre-clinical safety and efficacy profile of single plant candidate extract as well as in combined form was conducted following standard norms. […] The effect of test drug was assessed on glucose levels, insulin level, glycosylated hemoglobin, and pro-inflammatory cytokines, and the most important bio-marker neopterin including various neuro-psychological assessments. […] Aldose Reductase Activity and Glycation of Hemoglobin Following Test Formulation Treatment

In the case of `CCc1ccc(CCOc2ccc(CC3SC(=O)NC3=O)cc2)nc1` (stereo not drawn) [Pioglitazone], the Triglycerides (Triglycerides; 0 days) is reported as 133.35 ± 09.77 mg/dL, the Triglycerides (Triglycerides; 7th day) is reported as 117.50 ± 9.02 mg/dL and the Triglycerides (Triglycerides; 14th Day) is reported as 71.30 ± 6.26 mg/dL. For the same compound, the “Free Fatty Acid (FFA), Heart” value (Free Fatty Acid (FFA)) was 379.17 ± 22.06 mg/100 g of tissue, the “Free Fatty Acid (FFA), Liver” value (Free Fatty Acid (FFA)) was 522.67 ± 37.75 mg/100 g of tissue and the “Free Fatty Acid (FFA), Plasma” value (Free Fatty Acid (FFA)) was 69.00 ± 5.60 mg/L. The ACP [1] was 11.95 ± 1.00 U/L, the ALP [1] was 139.50 ± 3.15 U/L and the LDH [1] was 160.00 ± 15.00 U/L. The SGOT [1] was 72.00 ± 5.71 U/L, the SGPT [1] was 27.00 ± 3.00 U/L and the “G-6-P, Kidney” value (G-6-P) was 45.08 ± 4.76 μm/min/mg of protein. For the same compound, the “G-6-P, Liver” value (G-6-P) was 68.56 ± 7.51 μm/min/mg of protein, the “TBARS formation, Brain” value (TBARS) was 52.66 ± 3.55 and the “TBARS formation, Heart” value (TBARS) was 61.83 ± 4.52. The “TBARS formation, Kidney” value (TBARS) was 56.33 ± 7.93, the “TBARS formation, Liver” value (TBARS) was 82.50 ± 2.84 and the “TBARS formation, Pancrease” value (TBARS) was 87.67 ± 7.41. It also gave a Neopterin (Neopterin; 7th day) of 9.13 ± 2.10 nmol/L, a Neopterin (Neopterin; 14th Day) of 8.02 ± 2.01 nmol/L and an Insulin (Insulin) of 105.31 ± 9.10 pg/L. For the same compound, the Glyceuria [2] was “++” and the Urine volume [2] was 13.23 ± 1.18 mL.
In the case of `COc1ccc2cc3[n+](cc2c1OC)CCc1cc2c(cc1-3)OCO2` [Berberin], the “Anti-oxidant activity, cells challenged with H2O2” value (“Anti-oxidant activity … with H2O2” for short) (βTC6 insulinoma cell; Co-incubated, 1 pM, control 55.54) is reported as 54.53 ± 1.67, the “Anti-oxidant activity … with H2O2” value (βTC6 insulinoma cell; Co-incubated, 1 pg/ml, control 55.64) is reported as 59.70 ± 2.00 and the “Anti-oxidant activity … with H2O2” value (βTC6 insulinoma cell; Co-incubated, 10 pM, control 55.54) is reported as 54.79 ± 2.95. The “Anti-oxidant activity … with H2O2” value (βTC6 insulinoma cell; Co-incubated, 10 pg/ml, control 55.64) was 64.14 ± 2.04, the “Anti-oxidant activity … with H2O2” value (βTC6 insulinoma cell; Co-incubated, 100 pg/ml, control 55.64) was 67.40 ± 1.43 and the “Anti-oxidant activity … with H2O2” value (βTC6 insulinoma cell; Co-incubated, 0.1 nM, control 55.54) was 56.02 ± 2.82. For the same compound, the “Anti-oxidant activity … with H2O2” value (βTC6 insulinoma cell; Co-incubated, 1 nM, control 55.54) was 59.80 ± 1.30, the “Anti-oxidant activity … with H2O2” value (βTC6 insulinoma cell; Co-incubated, 1 ng/ml, control 55.64) was 76.57 ± 1.50 and the “Anti-oxidant activity … with H2O2” value (βTC6 insulinoma cell; Co-incubated, 10 nM, control 55.54) was 60.75 ± 2.16. For the same compound, the “Anti-oxidant activity … with H2O2” value (βTC6 insulinoma cell; Co-incubated, 10 ng/ml, control 55.64) was 85.90 ± 2.00, the “Anti-oxidant activity … with H2O2” value (βTC6 insulinoma cell; Pre-incubate, 1 pg/ml, control 55.64) was 61.60 ± 2.00 and the “Anti-oxidant activity … with H2O2” value (βTC6 insulinoma cell; Pre-incubate, 10 pg/ml, control 55.64) was 65.18 ± 1.98. For the same compound, the “Anti-oxidant activity … with H2O2” value (βTC6 insulinoma cell; Pre-incubate, 100 pg/ml, control 55.64) was 67.05 ± 2.45, the “Anti-oxidant activity … with H2O2” value (βTC6 insulinoma cell; Pre-incubate, 1 ng/ml, control 55.64) was 74.40 ± 1.40 and the “Anti-oxidant activity … with H2O2” value (βTC6 insulinoma cell; Pre-incubate, 10 ng/ml, control 55.64) was 77.69 ± 2.10. The “Anti-oxidant activity … with H2O2” value (βTC6 insulinoma cell; Pre-incubated, 1 pM, control 55.54) was 57.52 ± 0.80, the “Anti-oxidant activity … with H2O2” value (βTC6 insulinoma cell; Pre-incubated, 10 pM, control 55.54) was 58.90 ± 2.87 and the “Anti-oxidant activity … with H2O2” value (βTC6 insulinoma cell; Pre-incubated, 0.1 nM, control 55.54) was 60.12 ± 3.40. The “Anti-oxidant activity … with H2O2” value (βTC6 insulinoma cell; Pre-incubated, 1 nM, control 55.54) was 61.70 ± 1.60, the “Anti-oxidant activity … with H2O2” value (βTC6 insulinoma cell; Pre-incubated, 10 nM, control 55.54) was 64.20 ± 1.65 and the “anti-oxidant activity” value (βTC6 insulinoma cell; βTC6 cells challenged with hydrogen peroxide) was “potent anti-oxidant activity”. The “protection against H2O2 induced cellular oxidative damage” value (βTC6 insulinoma cell; βTC6 insulinoma cells) was “Mild Protection”.
Compound `CN(C)C(=N)N=C(N)N` [Metformin] has a Triglycerides (Triglycerides; 0 days) of 134.77 ± 14.06 mg/dL, a Triglycerides (Triglycerides; 7th day) of 123.32 ± 9.51 mg/dL and a Triglycerides (Triglycerides; 14th Day) of 102.50 ± 11.75 mg/dL. The “Free Fatty Acid (FFA), Heart” value (Free Fatty Acid (FFA)) was 446.83 ± 39.65 mg/100 g of tissue, the “Free Fatty Acid (FFA), Liver” value (Free Fatty Acid (FFA)) was 777.83 ± 53.14 mg/100 g of tissue and the “Free Fatty Acid (FFA), Plasma” value (Free Fatty Acid (FFA)) was 87.67 ± 7.68 mg/L. It also gave an ACP [1] of 12.05 ± 0.68 U/L, an ALP [1] of 142.00 ± 6.00 U/L and an LDH [1] of 145.11 ± 15.00 U/L. The SGOT [1] was 60.00 ± 5.00 U/L, the SGPT [1] was 24.25 ± 2.12 U/L and the “G-6-P, Kidney” value (G-6-P) was 41.85 ± 7.71 μm/min/mg of protein. The “G-6-P, Liver” value (G-6-P) was 57.49 ± 8.17 μm/min/mg of protein, the “TBARS formation, Brain” value (TBARS) was 48.08 ± 3.42 and the “TBARS formation, Heart” value (TBARS) was 62.33 ± 4.81. For the same compound, the “TBARS formation, Kidney” value (TBARS) was 56.74 ± 5.07, the “TBARS formation, Liver” value (TBARS) was 80.83 ± 9.17 and the “TBARS formation, Pancrease” value (TBARS) was 83.17 ± 7.24. It also gave a Neopterin (Neopterin; 7th day) of 8.90 ± 1.87 nmol/L, a Neopterin (Neopterin; 14th Day) of 9.11 ± 1.39 nmol/L and an Insulin (Insulin) of 109.24 ± 12.13 pg/L. For the same compound, the Aldose reductase (Aldose reductase) was 2.60 ± 0.75 μM of NADPH oxidized/g of protein, the Glyceuria [2] was “+” and the Urine volume [2] was 8.95 ± 1.70 mL.
